Here are results for 10 molecules from ChEMBL document CHEMBL1743141, “Membrane transporters in drug development” (Nat Rev Drug Discov, 2010).

Holding throughout (format): ADME
Series [1] addresses T1, Solute carrier organic anion transporter family member 1B1 (Homo sapiens, UniProt Q9Y6L6).
T1 sequence (Q9Y6L6 whole entry): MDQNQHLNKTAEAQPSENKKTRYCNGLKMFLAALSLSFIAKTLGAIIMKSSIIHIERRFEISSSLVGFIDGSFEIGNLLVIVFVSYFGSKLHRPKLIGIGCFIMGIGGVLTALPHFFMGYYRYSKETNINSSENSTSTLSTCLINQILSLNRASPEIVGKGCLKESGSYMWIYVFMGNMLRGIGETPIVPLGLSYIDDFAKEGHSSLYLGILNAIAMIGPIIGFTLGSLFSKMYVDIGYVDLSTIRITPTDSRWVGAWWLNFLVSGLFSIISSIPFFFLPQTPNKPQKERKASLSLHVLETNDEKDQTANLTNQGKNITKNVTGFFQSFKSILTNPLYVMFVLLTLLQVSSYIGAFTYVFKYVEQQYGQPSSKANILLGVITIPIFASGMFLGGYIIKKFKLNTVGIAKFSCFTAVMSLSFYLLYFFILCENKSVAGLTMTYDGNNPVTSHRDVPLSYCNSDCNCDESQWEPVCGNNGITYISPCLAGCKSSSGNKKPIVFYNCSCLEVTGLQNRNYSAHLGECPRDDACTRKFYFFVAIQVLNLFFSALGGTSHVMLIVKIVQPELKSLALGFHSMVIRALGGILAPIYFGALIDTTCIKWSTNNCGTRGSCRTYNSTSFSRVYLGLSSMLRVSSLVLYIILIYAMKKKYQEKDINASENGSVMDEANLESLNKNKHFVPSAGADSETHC
Nature of the series: Substrates of transporters of clinical importance in the absorption and disposition of drugs, OATP1B1.

Series [2] has as its target T2, Solute carrier organic anion transporter family member 1B3 (Homo sapiens, UniProt Q9NPD5).
T2 sequence (Q9NPD5 whole entry): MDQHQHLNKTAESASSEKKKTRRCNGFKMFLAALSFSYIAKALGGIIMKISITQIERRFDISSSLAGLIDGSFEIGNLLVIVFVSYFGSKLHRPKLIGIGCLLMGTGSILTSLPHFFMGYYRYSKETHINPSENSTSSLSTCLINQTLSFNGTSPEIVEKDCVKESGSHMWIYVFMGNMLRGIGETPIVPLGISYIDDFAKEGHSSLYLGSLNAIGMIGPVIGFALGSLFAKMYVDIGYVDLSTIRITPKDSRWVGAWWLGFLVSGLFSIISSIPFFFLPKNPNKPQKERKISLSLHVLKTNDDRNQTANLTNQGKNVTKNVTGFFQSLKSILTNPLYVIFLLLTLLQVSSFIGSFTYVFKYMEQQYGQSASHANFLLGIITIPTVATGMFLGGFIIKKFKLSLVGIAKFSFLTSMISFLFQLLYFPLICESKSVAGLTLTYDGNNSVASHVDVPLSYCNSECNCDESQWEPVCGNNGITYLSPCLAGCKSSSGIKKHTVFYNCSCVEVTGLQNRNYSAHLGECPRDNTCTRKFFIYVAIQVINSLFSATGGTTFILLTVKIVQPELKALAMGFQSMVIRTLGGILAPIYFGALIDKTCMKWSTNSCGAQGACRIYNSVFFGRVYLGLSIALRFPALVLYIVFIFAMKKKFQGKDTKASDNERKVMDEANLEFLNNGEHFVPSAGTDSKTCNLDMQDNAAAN
Nature of the series: Substrates of transporters of clinical importance in the absorption and disposition of drugs, OATP1B3.

In series [3] the target is ATP-binding cassette sub-family C member 2 (Homo sapiens, UniProt Q92887). Description: Substrates of transporters of clinical importance in the absorption and disposition of drugs, MRP2.
Series [4] addresses T3, ATP-binding cassette sub-family C member 4 (Homo sapiens, UniProt O15439).
T3 sequence (O15439 whole entry): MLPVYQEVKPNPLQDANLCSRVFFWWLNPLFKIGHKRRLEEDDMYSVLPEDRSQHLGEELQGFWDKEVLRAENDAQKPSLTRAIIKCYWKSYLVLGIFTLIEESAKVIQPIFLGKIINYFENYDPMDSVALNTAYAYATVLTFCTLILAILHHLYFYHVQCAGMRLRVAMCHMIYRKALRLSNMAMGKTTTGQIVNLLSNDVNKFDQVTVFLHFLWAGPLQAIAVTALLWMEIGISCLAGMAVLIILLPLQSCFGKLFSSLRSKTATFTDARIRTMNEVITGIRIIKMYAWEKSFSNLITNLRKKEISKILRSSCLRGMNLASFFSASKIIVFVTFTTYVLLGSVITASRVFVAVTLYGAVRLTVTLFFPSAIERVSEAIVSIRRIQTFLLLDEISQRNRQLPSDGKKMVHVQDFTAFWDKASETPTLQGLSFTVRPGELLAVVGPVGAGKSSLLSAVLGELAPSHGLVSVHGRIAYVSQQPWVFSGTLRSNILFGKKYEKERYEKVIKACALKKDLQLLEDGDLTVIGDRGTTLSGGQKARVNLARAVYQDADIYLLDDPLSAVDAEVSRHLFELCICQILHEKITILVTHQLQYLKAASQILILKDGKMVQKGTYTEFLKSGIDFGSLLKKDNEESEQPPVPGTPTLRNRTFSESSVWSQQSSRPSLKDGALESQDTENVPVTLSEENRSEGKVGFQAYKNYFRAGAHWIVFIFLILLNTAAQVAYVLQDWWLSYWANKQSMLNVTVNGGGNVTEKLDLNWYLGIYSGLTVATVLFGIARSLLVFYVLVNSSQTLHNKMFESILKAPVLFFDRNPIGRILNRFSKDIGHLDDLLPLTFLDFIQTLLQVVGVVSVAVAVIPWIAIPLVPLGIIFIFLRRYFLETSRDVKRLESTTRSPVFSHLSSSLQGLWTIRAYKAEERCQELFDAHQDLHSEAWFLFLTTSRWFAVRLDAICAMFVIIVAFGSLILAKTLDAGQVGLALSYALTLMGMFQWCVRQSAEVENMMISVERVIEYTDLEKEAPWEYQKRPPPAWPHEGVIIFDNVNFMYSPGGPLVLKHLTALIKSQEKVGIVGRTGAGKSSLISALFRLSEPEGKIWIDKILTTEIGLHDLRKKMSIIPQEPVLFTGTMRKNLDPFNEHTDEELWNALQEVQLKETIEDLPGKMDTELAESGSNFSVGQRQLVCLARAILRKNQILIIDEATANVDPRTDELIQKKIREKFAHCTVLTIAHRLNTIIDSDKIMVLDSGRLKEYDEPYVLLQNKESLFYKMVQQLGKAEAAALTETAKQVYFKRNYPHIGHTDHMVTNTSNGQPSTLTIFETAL
Nature of the series: Substrates of transporters of clinical importance in the absorption and disposition of drugs, MRP4.

Series [5] deals with ATP-dependent translocase ABCB1 (Homo sapiens, UniProt P08183). Description: Substrates of transporters of clinical importance in the absorption and disposition of drugs, MDR1.
The target in series [6] is T4, Solute carrier organic anion transporter family member 1A2 (Homo sapiens, UniProt P46721).
T4 sequence (P46721 whole entry): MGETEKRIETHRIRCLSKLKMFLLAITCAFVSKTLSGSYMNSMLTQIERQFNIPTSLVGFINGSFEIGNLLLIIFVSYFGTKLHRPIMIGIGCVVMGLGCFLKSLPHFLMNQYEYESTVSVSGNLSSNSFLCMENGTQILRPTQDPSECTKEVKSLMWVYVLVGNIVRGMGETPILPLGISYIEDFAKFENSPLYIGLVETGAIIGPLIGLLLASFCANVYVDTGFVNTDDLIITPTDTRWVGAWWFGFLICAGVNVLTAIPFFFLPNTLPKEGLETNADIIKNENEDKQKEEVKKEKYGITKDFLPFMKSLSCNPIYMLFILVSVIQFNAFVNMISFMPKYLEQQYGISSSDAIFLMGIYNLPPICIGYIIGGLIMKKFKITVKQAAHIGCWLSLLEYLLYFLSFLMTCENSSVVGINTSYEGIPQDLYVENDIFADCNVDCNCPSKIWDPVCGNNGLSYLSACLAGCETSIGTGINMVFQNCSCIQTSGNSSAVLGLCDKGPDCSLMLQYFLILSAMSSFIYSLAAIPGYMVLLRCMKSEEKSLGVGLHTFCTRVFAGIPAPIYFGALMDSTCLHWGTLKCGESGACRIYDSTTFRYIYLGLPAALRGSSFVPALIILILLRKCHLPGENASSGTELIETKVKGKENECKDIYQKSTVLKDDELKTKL
Description: Substrates of transporters of clinical importance in the absorption and disposition of drugs, OATP1A2.

Series [7] concerns the target T5, Solute carrier family 15 member 1 (Homo sapiens, UniProt P46059).
T5 sequence (P46059 whole entry): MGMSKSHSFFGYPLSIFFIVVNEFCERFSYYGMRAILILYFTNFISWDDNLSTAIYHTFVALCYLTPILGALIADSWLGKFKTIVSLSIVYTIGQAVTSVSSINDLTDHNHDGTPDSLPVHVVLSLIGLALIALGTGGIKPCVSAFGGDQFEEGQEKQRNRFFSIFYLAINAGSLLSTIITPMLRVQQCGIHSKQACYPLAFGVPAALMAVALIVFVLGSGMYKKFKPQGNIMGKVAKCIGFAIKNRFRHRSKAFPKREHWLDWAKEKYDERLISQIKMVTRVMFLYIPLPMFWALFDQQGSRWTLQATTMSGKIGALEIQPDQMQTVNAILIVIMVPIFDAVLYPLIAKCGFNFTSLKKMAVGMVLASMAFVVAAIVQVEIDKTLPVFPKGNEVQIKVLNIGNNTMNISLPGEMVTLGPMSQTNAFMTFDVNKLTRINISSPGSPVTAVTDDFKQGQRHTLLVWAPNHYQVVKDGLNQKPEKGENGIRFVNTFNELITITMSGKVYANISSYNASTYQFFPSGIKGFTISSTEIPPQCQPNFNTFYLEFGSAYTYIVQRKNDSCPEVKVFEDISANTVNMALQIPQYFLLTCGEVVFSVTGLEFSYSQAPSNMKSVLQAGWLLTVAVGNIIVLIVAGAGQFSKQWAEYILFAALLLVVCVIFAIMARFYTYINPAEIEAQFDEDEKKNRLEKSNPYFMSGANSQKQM
Nature of the series: Substrates of transporters of clinical importance in the absorption and disposition of drugs, PEPT1.

The target of series [8] is T6, Solute carrier family 15 member 2 (Homo sapiens, UniProt Q16348).
T6 sequence (Q16348 whole entry): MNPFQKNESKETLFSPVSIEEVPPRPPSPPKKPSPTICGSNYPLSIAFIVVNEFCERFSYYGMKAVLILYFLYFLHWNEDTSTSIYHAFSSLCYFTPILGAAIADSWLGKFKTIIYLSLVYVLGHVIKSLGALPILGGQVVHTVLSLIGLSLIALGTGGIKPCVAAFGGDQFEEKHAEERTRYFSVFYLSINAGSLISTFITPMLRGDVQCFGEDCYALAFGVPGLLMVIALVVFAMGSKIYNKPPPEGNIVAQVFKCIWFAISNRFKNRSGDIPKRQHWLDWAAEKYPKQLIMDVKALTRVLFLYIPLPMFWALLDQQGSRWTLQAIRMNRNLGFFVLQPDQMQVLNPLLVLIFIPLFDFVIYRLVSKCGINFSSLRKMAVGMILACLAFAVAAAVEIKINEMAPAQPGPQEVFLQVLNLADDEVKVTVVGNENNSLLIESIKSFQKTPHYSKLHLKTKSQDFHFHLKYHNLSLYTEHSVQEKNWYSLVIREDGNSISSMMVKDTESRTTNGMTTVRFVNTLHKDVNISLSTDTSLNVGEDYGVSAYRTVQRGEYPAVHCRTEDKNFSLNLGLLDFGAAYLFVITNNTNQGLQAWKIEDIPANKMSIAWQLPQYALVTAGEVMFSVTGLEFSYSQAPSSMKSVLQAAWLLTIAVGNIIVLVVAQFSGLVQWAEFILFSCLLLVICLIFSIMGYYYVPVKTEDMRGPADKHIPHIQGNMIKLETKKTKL
Nature of the series: Substrates of transporters of clinical importance in the absorption and disposition of drugs, PEPT2.

Sequence of ATP-binding cassette sub-family C member 2 (Q92887 whole entry): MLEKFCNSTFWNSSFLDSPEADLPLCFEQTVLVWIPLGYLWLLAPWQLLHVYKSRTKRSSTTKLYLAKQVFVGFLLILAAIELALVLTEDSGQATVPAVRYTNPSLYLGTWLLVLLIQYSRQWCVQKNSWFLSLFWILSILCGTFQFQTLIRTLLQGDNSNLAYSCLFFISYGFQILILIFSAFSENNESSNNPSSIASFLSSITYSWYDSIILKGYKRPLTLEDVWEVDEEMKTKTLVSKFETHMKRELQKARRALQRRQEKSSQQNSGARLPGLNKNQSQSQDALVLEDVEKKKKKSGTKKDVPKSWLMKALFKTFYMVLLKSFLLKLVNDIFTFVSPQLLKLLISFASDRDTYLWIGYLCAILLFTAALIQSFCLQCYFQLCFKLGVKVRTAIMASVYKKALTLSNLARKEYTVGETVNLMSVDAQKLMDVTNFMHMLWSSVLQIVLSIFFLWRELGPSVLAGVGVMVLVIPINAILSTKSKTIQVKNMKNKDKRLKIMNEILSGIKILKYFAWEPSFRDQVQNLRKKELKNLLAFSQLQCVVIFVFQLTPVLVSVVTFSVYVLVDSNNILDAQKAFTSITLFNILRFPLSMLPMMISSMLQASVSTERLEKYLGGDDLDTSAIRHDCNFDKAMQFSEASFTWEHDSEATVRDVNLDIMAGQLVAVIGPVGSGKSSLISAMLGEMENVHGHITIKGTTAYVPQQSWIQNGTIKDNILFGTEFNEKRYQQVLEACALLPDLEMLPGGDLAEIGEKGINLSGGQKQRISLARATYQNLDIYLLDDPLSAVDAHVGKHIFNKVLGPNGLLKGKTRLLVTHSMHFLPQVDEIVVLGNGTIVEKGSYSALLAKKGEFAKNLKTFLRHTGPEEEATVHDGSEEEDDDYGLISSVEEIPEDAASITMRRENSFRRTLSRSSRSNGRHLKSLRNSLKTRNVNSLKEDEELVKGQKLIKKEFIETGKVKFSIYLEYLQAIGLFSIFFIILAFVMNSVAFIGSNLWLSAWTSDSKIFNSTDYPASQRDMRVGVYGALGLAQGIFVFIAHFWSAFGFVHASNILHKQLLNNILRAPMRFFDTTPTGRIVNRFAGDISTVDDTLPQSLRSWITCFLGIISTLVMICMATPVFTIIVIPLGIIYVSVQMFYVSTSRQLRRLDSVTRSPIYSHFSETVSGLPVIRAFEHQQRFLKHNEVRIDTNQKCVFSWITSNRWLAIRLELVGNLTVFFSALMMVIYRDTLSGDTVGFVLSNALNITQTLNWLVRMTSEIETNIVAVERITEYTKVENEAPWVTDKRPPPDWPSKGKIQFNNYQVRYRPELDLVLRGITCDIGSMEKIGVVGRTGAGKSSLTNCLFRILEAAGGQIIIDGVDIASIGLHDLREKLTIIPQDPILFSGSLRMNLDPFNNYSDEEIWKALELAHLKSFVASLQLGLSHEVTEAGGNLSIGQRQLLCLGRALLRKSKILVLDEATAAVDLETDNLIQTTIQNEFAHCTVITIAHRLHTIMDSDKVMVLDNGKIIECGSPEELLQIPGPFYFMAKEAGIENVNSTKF
Sequence of ATP-dependent translocase ABCB1 (P08183 whole entry): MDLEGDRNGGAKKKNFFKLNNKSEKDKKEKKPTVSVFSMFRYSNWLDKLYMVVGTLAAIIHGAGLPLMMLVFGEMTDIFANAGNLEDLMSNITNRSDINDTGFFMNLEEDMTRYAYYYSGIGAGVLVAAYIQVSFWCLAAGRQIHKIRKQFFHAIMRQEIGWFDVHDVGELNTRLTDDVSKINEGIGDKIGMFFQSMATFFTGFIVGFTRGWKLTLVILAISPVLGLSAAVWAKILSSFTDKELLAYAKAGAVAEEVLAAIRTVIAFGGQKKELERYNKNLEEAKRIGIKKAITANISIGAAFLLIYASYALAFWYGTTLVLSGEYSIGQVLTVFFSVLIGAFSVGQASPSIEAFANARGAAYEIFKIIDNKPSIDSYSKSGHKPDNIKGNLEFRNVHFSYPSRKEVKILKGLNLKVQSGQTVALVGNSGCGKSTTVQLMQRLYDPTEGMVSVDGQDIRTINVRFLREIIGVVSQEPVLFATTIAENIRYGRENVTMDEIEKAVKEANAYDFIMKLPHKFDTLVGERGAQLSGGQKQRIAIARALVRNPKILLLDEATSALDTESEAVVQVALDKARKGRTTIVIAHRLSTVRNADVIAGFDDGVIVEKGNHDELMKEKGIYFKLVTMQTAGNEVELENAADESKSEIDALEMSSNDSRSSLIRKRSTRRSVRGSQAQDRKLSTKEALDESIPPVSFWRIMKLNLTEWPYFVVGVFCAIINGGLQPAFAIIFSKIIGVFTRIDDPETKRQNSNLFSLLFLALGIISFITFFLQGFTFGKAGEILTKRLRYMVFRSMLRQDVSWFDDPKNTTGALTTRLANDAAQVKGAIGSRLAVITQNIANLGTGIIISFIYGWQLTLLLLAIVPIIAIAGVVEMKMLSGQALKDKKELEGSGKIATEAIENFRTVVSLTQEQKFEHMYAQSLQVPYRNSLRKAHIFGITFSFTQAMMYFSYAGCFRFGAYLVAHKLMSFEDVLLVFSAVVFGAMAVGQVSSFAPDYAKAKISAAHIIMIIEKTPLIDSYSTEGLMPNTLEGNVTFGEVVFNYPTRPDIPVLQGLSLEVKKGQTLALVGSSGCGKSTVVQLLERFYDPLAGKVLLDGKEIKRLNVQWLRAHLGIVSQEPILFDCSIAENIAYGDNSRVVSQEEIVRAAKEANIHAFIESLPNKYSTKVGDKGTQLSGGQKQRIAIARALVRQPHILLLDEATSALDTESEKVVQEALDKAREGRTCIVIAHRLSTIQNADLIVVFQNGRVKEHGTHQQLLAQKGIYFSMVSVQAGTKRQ

On to `CCCCC(=O)N(Cc1ccc(-c2ccccc2-c2nnn[nH]2)cc1)[C@H](C(=O)O)C(C)C`, for which the Activity result in series [1], in series [2] and in series [3] was “transporter substrate” throughout. As for `CCc1c2c(nc3ccc(OC[C@@H]4O[C@H](C(=O)O)[C@@H](O)[C@H](O)[C@H]4O)cc13)-c1cc3c(c(=O)n1C2)COC(=O)[C@]3(O)CC`, the Activity entry in series [3] is listed as “transporter substrate”. Turning to `Nc1nc2c(ncn2[C@@H]2O[C@@H]3COP(=O)(O)O[C@H]3[C@H]2O)c(=O)[nH]1`, in series [4], the Activity entry is “transporter substrate”. `COc1ccc2cc3[n+](cc2c1OC)CCc1cc2c(cc1-3)OCO2.[Cl-]` [BERBERINE CHLORIDE]: in series [5], the Activity entry is “transporter substrate”. Turning to `COc1cccc2c1C(=O)c1c(O)c3c(c(O)c1C2=O)C[C@@](O)(C(=O)CO)C[C@@H]3O[C@H]1C[C@H](N)[C@H](O)[C@H](C)O1` [DOXORUBICIN], the Activity entry in series [5] was “transporter substrate”. As to `COc1cc([C@@H]2c3cc4c(cc3[C@@H](O[C@@H]3O[C@@H]5CO[C@@H](C)O[C@H]5[C@H](O)[C@H]3O)[C@H]3COC(=O)[C@H]23)OCO4)cc(OC)c1O` [ETOPOSIDE], the Activity entry in series [3] is listed as “transporter substrate”. In the case of `CN(C)C(=O)C(CCN1CCC(O)(c2ccc(Cl)cc2)CC1)(c1ccccc1)c1ccccc1` [LOPERAMIDE], the Activity result in series [5] is given as “transporter substrate”. For `C[C@]12CC[C@H](OS(=O)(=O)O)CC1=CC[C@@H]1[C@@H]2CC[C@]2(C)C(=O)CC[C@@H]12` [PRASTERONE SULFURIC ACID], the Activity entry in series [6] and in series [4] was “transporter substrate” throughout. On to `CC(C)C[C@H](NC(=O)[C@@H](O)[C@H](N)Cc1ccccc1)C(=O)O` [UBENIMEX], for which the Activity entry in series [7] and in series [8] was “transporter substrate” in each case. `CC(C)[C@H](N)C(=O)OCCOCn1cnc2c(=O)[nH]c(N)nc21` [VALACYCLOVIR]: the Activity entry in series [7] and in series [8] was “transporter substrate” each time.
